The source made the active and inactive calls. No cut-off for these calls is given here.
Tests used:
Mus musculus [1] = test: Anti-inflammatory activity in Swiss mouse assessed as inhibition of LPS-induced pleural accumulation in total leucocytes at 100 mg/kg, ip pretreated for 1 hr followed by LPS stimulation and measured after 24 hrs by May-Grunwald-Giemsa staining-based Neubauer chamber based optical microscopy; type: functional, organism-based
Mus musculus [2] = test: Anti-inflammatory activity in Swiss mouse assessed as inhibition of LPS-induced pleural accumulation in neutrophils cells at 100 mg/kg, ip pretreated for 1 hr followed by LPS stimulation and measured after 24 hrs by May-Grunwald-Giemsa staining-based Neubauer chamber based optical microscopy; type: functional, organism-based
P2X purinoceptor 7 [3] = molecular target: T1, P2X purinoceptor 7 (Mus musculus, UniProt Q9Z1M0); test: Antagonist activity at P2X7 receptor in Swiss mouse peritoneal macrophages assessed as inhibition of ATP-induced current at holding potential of -60 mV preincubated for 5 mins followed by ATP addition measured after 5 mins by Whole cell patch-clamp analysis
T1 sequence (Q9Z1M0 whole entry): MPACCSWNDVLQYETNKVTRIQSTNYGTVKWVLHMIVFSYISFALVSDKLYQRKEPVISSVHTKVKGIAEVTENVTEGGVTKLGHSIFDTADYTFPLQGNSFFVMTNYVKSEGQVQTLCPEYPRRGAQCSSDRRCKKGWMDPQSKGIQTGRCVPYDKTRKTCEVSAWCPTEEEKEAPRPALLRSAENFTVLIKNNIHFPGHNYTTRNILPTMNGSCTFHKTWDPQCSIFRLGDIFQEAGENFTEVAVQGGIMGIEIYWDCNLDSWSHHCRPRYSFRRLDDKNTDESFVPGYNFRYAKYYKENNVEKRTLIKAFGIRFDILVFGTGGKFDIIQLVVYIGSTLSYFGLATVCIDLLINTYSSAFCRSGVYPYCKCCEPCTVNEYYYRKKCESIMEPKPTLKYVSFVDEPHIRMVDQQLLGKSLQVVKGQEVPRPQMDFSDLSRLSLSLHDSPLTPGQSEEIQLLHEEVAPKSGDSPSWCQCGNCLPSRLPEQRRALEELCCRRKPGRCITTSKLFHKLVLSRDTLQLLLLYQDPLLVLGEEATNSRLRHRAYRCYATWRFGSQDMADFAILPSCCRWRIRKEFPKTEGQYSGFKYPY

[4] = Kinetic solubility in pH 4 citrate buffer at 1 to 250 uM after 2 hrs; type: physicochemical; settings: read-out: Kinetic_solubility
[5] = Intrinsic clearance in human liver microsomes assessed per mg protein at 1 uM measured up to 45 mins; type: ADME, microsome; settings: read-out: CLH
Mus musculus [6] = test: Anti-inflammatory activity in Swiss mouse assessed as inhibition of LPS-induced protein extravasation in thoracic cavity at 100 ng/kg, ip pretreated for 1 hr followed by LPS stimulation and measured after 24 hrs; type: functional, organism-based
[7] = Kinetic solubility in pH 7.4 phosphate buffer at 1 to 250 uM after 2 hrs; type: physicochemical; settings: read-out: Kinetic_solubility
P2X purinoceptor 7 [8] = molecular target: T2, P2X purinoceptor 7 (Homo sapiens, UniProt Q99572); test: Antagonist activity at human P2X7 receptor in PMA-differentiated THP-1 macrophages assessed as inhibition of ATP-induced IL-1beta release preincubated for 30 mins followed by ATP addition measured after 30 mins by ELISA
T2 sequence (Q99572 whole entry): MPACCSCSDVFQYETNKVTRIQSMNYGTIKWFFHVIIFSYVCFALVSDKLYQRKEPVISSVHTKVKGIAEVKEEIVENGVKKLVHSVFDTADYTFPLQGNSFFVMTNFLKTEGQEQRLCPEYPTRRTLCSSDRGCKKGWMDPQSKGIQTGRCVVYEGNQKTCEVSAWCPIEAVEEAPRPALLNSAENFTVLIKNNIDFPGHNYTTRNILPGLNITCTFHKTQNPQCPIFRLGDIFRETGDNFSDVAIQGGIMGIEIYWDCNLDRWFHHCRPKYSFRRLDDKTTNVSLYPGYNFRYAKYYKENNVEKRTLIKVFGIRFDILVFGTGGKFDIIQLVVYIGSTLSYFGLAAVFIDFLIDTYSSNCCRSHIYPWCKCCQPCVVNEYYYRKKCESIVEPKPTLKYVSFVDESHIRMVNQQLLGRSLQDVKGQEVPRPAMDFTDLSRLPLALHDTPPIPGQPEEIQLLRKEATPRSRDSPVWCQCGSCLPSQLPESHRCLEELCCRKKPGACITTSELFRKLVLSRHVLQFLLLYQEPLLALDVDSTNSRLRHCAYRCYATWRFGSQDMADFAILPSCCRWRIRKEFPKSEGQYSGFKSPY

P2X purinoceptor 7 [9] = molecular target: T1, P2X purinoceptor 7; test: Antagonist activity at P2X7 receptor in LPS/IFNc-differentiated Swiss mouse peritoneal macrophages assessed as inhibition of ATP-induced IL-1beta release preincubated for 30 mins followed by LPS stimulation for 4 hrs using cells treated with ATP for 30 mins by ELISA
P2X purinoceptor 7 [10] = molecular target: T1, P2X purinoceptor 7; test: Antagonist activity at P2X7 receptor in Swiss mouse peritoneal macrophages assessed as inhibition of BzATP-induced ethidium iodide uptake after 30 mins by spectrofluorometric analysis
Mus musculus [11] = test: Anti-inflammatory activity in Swiss mouse assessed as inhibition of LPS-induced nitric oxide production in pleural washes at 1 to 100 ng/kg, ip pretreated for 1 hr followed by LPS stimulation and measured after 24 hrs by Lowry/Griess analysis; type: functional, organism-based
P2X purinoceptor 7 [12] = molecular target: T2, P2X purinoceptor 7; test: Antagonist activity at human P2X7 receptor expressed in HEK293 cells assessed as inhibition of ATP-induced ethidium iodide uptake preincubated for 10 mins followed by ATP addition measured after 20 mins by spectrofluorometric analysis; type: cell-based
[13] = molecular target: T3, P2X purinoceptor 7 (Mus musculus) (UniProt Q9Z1M0); test: Antagonist activity at mouse P2X7 receptor expressed in HEK293 cells assessed as inhibition of ATP-induced ethidium iodide uptake at 10 uM preincubated for 10 mins followed by ATP addition measured after 20 mins by FLIPR assay relative to 1 mM ATP; type: cell-based
T3 sequence (whole entry): T1 sequence (Q9Z1M0 whole entry)

[14] = molecular target: T4, P2X purinoceptor 7 (Homo sapiens) (UniProt Q99572); test: Antagonist activity at human P2X7 receptor expressed in HEK293 cells assessed as inhibition of ATP-induced ethidium iodide uptake at 10 uM preincubated for 10 mins followed by ATP addition measured after 20 mins by FLIPR assay relative to 1 mM ATP; type: cell-based
T4 sequence (whole entry): T2 sequence (Q99572 whole entry)

Mus musculus [15] = test: Anti-inflammatory activity in po dosed Swiss Webster mouse assessed as inhibition of ATP-induced paw edema pretreated for 60 mins followed by ATP administration and measured after 30 mins; type: functional
P2X purinoceptor 7 [16] = molecular target: T2, P2X purinoceptor 7; test: (§1) Antagonist activity at P2X7 receptor in LPS/IFNc-differentiated human THP-1 cells assessed as inhibition of ATP-induced IL-1beta release preincubated for 30 mins followed by LPS stimulation for 4 hrs using cells treated with ATP for 30 mins by ELISA; type: cell-based
[17] = molecular target: T4, P2X purinoceptor 7 (Homo sapiens); test: as §1; type: cell-based
Mus musculus [18] = test: Anti-inflammatory activity in Swiss mouse assessed as inhibition of LPS-induced pleural accumulation in neutrophils at 1 to 100 ng/kg, ip pretreated for 1 hr followed by LPS stimulation and measured after 24 hrs by May-Grunwald-Giemsa staining-based Neubauer chamber based optical microscopy; type: functional, organism-based

Row | Structure (SMILES) | Activity (Mus musculus [1]) | Activity (Mus musculus [2]) | IC50 (P2X purinoceptor 7 [3]) | solubility kinetic at 2 h [4] | microsomal CLint at 1 µM [5] | Activity (Mus musculus [6]) | solubility kinetic at 2 h [7] | IC50 (P2X purinoceptor 7 [8]) | IC50 (P2X purinoceptor 7 [9]) | IC50 (P2X purinoceptor 7 [10]) | Activity (Mus musculus [11]) | IC50 (P2X purinoceptor 7 [12]) | inhibition [13] | inhibition [14] | ID50 (Mus musculus [15]) | IC50 (P2X purinoceptor 7 [16]) | Activity [17] | Activity (Mus musculus [18])
1 | O=C(O)Cc1ccccc1Nc1c(Cl)cccc1Cl [DICLOFENAC] | Active | inactive | – | – | – | – | – | – | – | – | – | – | – | – | – | – | – | –
2 | CCOCc1cn(-c2ccc(Cl)cc2)nn1 | – | – | 69 nM | < 250 µM | 30.2 µL/min/mg | Active | < 250 µM | 67 nM | 91 nM | 59.2 nM | Active | 5.3 nM | Active | 96.9% | 0.06859 µg/kg | 67.5 nM | Dose-dependent effect | inactive
